Structures can show the parent of a compound that is named as a salt.
biological target: T1, protein farnesyltransferase (Rattus norvegicus, UniProt Q02293+Q04631); assay: in vitro inhibition of protein farnesyltransferase (scintillation proximity assay, biotin-K Ras B fragment); type: biochemical; details: at 1 × 10^-5 M
T1 construct: Rat brain protein farnesyltransferase activity is measured; from tissue; host or cells: rat brain; purified according to Reiss et al., Cell 62:81-88 (1990), steps one through three
How it was run: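 Scintillation proximity read-out of farnesylation, using a biotinylated K Ras B fragment (0.1 mM final) in place of biotin-lamin. Enzyme purified from rat brain; results given as % inhibition.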

Row | Structure (SMILES) | inhibition at 10 µM [%]
1 | CSCC[C@H](NC(=O)c1ccc(CNc2ccc3c(c2)CCC3)cc1-c1ccccc1)C(=O)O [Example 705] | 72
2 | COc1cc(I)c(C(=O)Nc2ccc(C(=O)N[C@@H](CCSC)C(=O)O)c(-c3ccccc3)c2)cc1OC [Example 756] | 47

same assay, conditions: at 1 × 10^-6 M

Row | Structure (SMILES) | % inhibition of farnesyltransferase [%]
3 | CSCC[C@H](NC(=O)c1cc(Cc2ccccc2)c(COCCCc2ccccc2)cc1-c1ccccc1C)C(=O)O [Example 925] | 87
4 | CSCC[C@H](NC(=O)c1ccc(-c2ccccc2-c2ccccc2)cc1-c1ccccc1C)C(=O)[O-].[Li+] [Example 786] | 34
5 | CSCC[C@H](NC(=O)c1ccc(S(=O)(=O)NCCN2CCOCC2)cc1-c1ccccc1C)C(=O)O [Example 775] | 32
6 | CSCC[C@H](NC(=O)c1ccc(CS(=O)(=O)Cc2ccccc2)cc1-c1ccccc1C)C(=O)O [Example 555] | 85
7 | CSCC[C@H](NC(=O)c1ccc(CCc2cccc(-c3ccccc3)c2)cc1-c1ccccc1C)C(=O)[O-].[Li+] [Example 793] | 94
8 | CSCCC(NC(=O)c1ccc(CNC(CO)c2ccccc2)cc1-c1ccccc1)C(=O)O (stereo not shown) [Example 657] | 32
9 | CSCC[C@H](NC(=O)c1ccc(COCc2ccc(-c3ccc(F)cc3)o2)cc1-c1cccc2ccccc12)C(=O)[O-].[Li+] [Example 868] | 89
10 | CSCC[C@H](NC(=O)c1ccc(C=Cc2ccccc2Oc2ccccc2)cc1-c1ccccc1C)C(=O)[O-].[Li+] [Example 453] | 90
11 | CSCC[C@H](NC(=O)c1ccc(CCCc2ccc3ccccc3c2)cc1-c1ccccc1C)C(=O)[O-].[Li+] [Example 470] | 95

same assay, conditions: at 1 × 10^-6 M; read-out: % inhibition of farnesyltransferase

Row | Structure (SMILES) | inhibition at 1 µM [%]
12 | CSCC[C@H](NC(=O)c1ccc(CN(CCc2ccccc2)C(C)C)cc1-c1ccccc1C)C(=O)O [Example 835, N-[14-N-(2-phenylethyl)-N-isoprolpylaminomethyl-2-(2-methylphenyl)benzoyl]methionine lithium salt] | 96
13 | CSCC[C@H](NC(=O)c1ccc(CNc2cccc(I)c2)cc1-c1ccccc1)C(=O)O [Example 677] | 37
14 | CSCC[C@H](NC(=O)c1ccc(CN(CC(C)C)C(CC2CCCCC2)CC2CCCCC2)cc1-c1ccccc1C)C(=O)O [Example 908] | 88
15 | CSCC[C@H](NC(=O)c1ccc(CNCc2ccccc2)cc1-c1ccccc1)C(=O)O [Example 936, N-[4-(N-benzylaminomethyl)-2-phenylbenzoyl]methionine hydrochloride salt] | 69
16 | CSCC[C@H](NC(=O)c1ccc(CN(Cc2ccccc2)c2ccccc2C(C)=O)cc1-c1ccccc1C)C(=O)O [Example 844, N-[4-N-(N-benzyl-N-(2-acetylphenyl)aminomethyl)-2-(2-methylphenyl)benzoyl]methionine lithium salt] | 92
17 | COC(=O)[C@H](CCSC)NC(=O)c1ccc(NC(=O)[C@@H]2CSCN2)cc1-c1ccccc1 [Example 164, [4-((R)-thiazolidin-4-ylcarbonyl)amino-2-phenylbenzoyl]methionine methyl ester hydrochloride] | 92
18 | CSCC[C@H](NC(=O)c1ccc(CNc2ccccc2F)cc1-c1ccccc1)C(=O)O [Example 642] | 48
19 | CCSC[C@H](CC1CCCCC1)NCc1ccc(C(=O)N[C@@H](CCSC)C(=O)OCOC(=O)C(C)(C)C)c(-c2ccccc2C)c1 [Example 764, hydrochloride salt] | 88
20 | CSCC[C@H](NC(=O)c1ccc(CN(C)CC(O)CO)cc1-c1ccccc1C)C(=O)O (stereo partly shown) [Example 719] | 90

same assay, conditions: at 1 × 10^-7 M

Row | Structure (SMILES) | % inhibition of farnesyltransferase [%]
21 | CSCC[C@H](NC(=O)c1ccc(COCc2cncs2)cc1-c1ccccc1C)C(=O)[O-].[Li+] [Example 539] | 89
22 | CSCC[C@H](NC(=O)c1ccc(CSCCc2ccccc2)cc1-c1ccccc1C)C(=O)[O-].[Li+] [Example 562] | 95
23 | COc1ccccc1CCOCc1ccc(C(=O)N[C@@H](CCSC)C(=O)O)c(-c2ccccc2C)c1 [Example 589] | 91
24 | COc1ncc(COCc2ccc(C(=O)N[C@@H](CCSC)C(=O)O)c(-c3ccccc3C)c2)s1 [Example 896] | 96
25 | CSCC[C@H](NC(=O)c1ccc(/C=C/c2ccc(Oc3ccccc3Cl)cc2)cc1-c1ccccc1C)C(=O)O [Example 854] | 78
26 | CSCC[C@H](NC(=O)c1ccc(CSC2=NCCS2)cc1-c1ccccc1C)C(=O)O [Example 730] | 96

same assay, conditions: at 1 × 10^-7 M; read-out: % inhibition of farnesyltransferase

Row | Structure (SMILES) | inhibition at 0.1 µM [%]
27 | CSCC[C@H](NC(=O)c1ccc(CN[C@H](/C=C\CC(C)C)CC2CCCCC2)cc1-c1ccccc1C)C(=O)O [Example 526, N-[4-N-(1-Cyclohexyl-6-methylhept-3-en-2-yl)aminomethyl-2-(2-methylphenyl)benzoyl]methionine lithium salt] | 96
28 | CSCC[C@H](NC(=O)c1ccc(CN(CCC2CCCCC2)S(C)(=O)=O)cc1-c1ccccc1C)C(=O)O [Example 611, N-[4-(N-(2-cyclohexylethyl)-N-methanesulfonylaminomethyl)-2-(2-methylphenyl)benzol]methionine Lithium Salt] | 95
29 | CSCC[C@H](NC(=O)c1ccc(CNC(CC2CCCCC2)CC2CCCCC2)cc1-c1ccccc1C)C(=O)O [Example 524, N-[4-N-(1,3-dicyclohexylpropan-2-yl)aminomethyl-2-(2-methylphenyl)benzoyl]methionine lithium salt] | 99

same assay, conditions: at 1 × 10^-8 M

Row | Structure (SMILES) | % inhibition of farnesyltransferase [%]
30 | CSCC[C@H](NC(=O)c1ccc(COCc2cnc(-c3cccc(Cl)c3)s2)cc1-c1ccccc1C)C(=O)[O-].[Li+] [Example 899] | 88
31 | CSCC[C@H](NC(=O)c1ccc(CON=C(Cc2ccccc2)Cc2ccccc2)cc1-c1ccccc1C)C(=O)O [Example 888] | 86
32 | CCSC[C@H](CC1CCCCC1)OCc1ccc(C(=O)N[C@@H](CCSC)C(=O)O)c(-c2ccccc2C)c1 [Example 606] | 93

same assay, conditions: at 1 × 10^-8 M; read-out: % inhibition of farnesyltransferase

Row | Structure (SMILES) | inhibition at 0.01 µM [%]
33 | C=C[C@H](CC1CCCCC1)NCc1ccc(C(=O)N[C@@H](CCSC)C(=O)O)c(-c2ccccc2C)c1 [Example 619, N-[4-(2-cyclohexylprop-1-en-2-ylaminomethyl)-2-(2-methylphenyl)benzoyl]methionine Lithium Salt] | 95
34 | CSCC[C@H](NC(=O)c1ccc(CN(C)C(CC2CCCCC2)CC2CCCCC2)cc1-c1ccccc1C)C(=O)O [Example 907, N-[4-(N-(1,3-Dicyclohexylpropan-2-yl)-N-methylaminomethyl)-2-(2-methylphenyl)-benzoyl]methionine] | 79
35 | CSCC[C@H](NC(=O)c1ccc(CN[C@@H](CC2CCCCC2)C(=O)N2CCCCC2)cc1-c1ccccc1C)C(=O)O [Example 887, N-[4-N-(3-Cyclohexyl-1-oxo-1-piperidin-1-ylpropan-2-yl)aminomethyl-2-(2-methylphenyl)benzoyl]-methionine lithium salt] | 92
36 | CCCCS(=O)(=O)N(CCC1CCCCC1)Cc1ccc(C(=O)N[C@@H](CCSC)C(=O)O)c(-c2ccccc2C)c1 [Example 916] | 96

same assay, conditions: read-out: % inhibition of farnesyltransferase

Row | Structure (SMILES) | inhibition at 1 µM [%]
37 | CCOC(=O)N1CCC(NCc2ccc(C(=O)N[C@@H](CCSC)C(=O)O)c(-c3ccccc3C)c2)CC1 [Example 806, N-[4-(1-ethoxycarbonylpiperidin-4-ylaminomethyl)-2-(2-methylphenyl)benzoyl]methionine lithium salt] | 72

From US6310095A, “Inhibitors of protein isoprenyl transferases” (University of Pittsburgh, priority 1998, dated 2001)
